Results taken from patent US20090326633A1, “CONTROLLED RELEASE ENDOPROSTHETIC DEVICE” (BOEHRINGER INGELHEIM PHARMA GMBH & CO. KG, priority 2001, published 2009).

System: muscle cells
Test: Cell proliferation ELISA, BrdU incorporation into DNA (inhibition of DNA synthesis)
Format: cell-based
Conditions: stents loaded with dipyramidole
Excerpt: Incorporation of BrdU instead of thymidine into the DNA, measurement with anti-BrdU-POD antibody (Cell proliferation ELISA, BrdU; obtained from Roche Diagnostics, Mannheim, Germany)
The following results have been obtained using this test with the stents loaded with dipyramidole according to the present invention: […]

Structure (SMILES): OCCN(CCO)c1nc(N2CCCCC2)c2nc(N(CCO)CCO)nc(N3CCCCC3)c2n1 [dipyridamole, 2,6-bis(diethanolamino)-4,8-dipiperidino-pyrimido[5,4-d]pyrimidine]
- IC50 (muscle cells stimulated with PDGF-BB): 0.1 to 0.3 µM
- IC50 (muscle cells without stimulation): 1 to 3 µM
- IC50 (with freshly prepared medium): 4 to 10 µM
